Results taken from ChEMBL document CHEMBL3758161, “Synthesis and evaluation of antibacterial and antitumor activities of new galactopyranosylated amino alcohols” (Eur J Med Chem, 2016).
In brackets after ≈: the same amount, converted by molar mass.

Key:
[1] = Lipophilicity, log P of the compound; assay type: physicochemical; details: octanol/water
[2] = test system: Mycobacterium tuberculosis; assay: microbe, parasite or virus in culture; details: H37Rv
Description: Antibacterial activity against Mycobacterium tuberculosis H37Rv

[3] = Cytotoxicity against human GM07492A cells assessed as cell growth inhibition after 24 hrs by XTT assay; assay type: cell-based
MCF7 [4] = assay: Selectivity index, ratio of IC50 for human GM07492A cells to IC50 for human MCF7 cells; assay type: functional
HeLa = assay: Cytotoxicity against human HeLa cells assessed as cell growth inhibition after 24 hrs by XTT assay; assay type: functional, cell-based
M059J = assay: Cytotoxicity against human M059J cells assessed as cell growth inhibition after 24 hrs by XTT assay; assay type: functional, cell-based
MCF7 [5] = assay: cells; details: Homo sapiens, MCF7, 24 h
Description: Cytotoxicity against human MCF7 cells assessed as cell growth inhibition after 24 hrs by XTT assay

Pseudomonas aeruginosa [6] = assay: Antibacterial activity against gram-negative Pseudomonas aeruginosa ATCC 2785 at 5 mg/ml incubated overnight by agar well diffusion method; assay type: functional; details: read-out: DIZ
[7] = test system: Staphylococcus epidermidis; assay: Antibacterial activity against gram-positive Staphylococcus epidermidis ATCC 12228 at 5 mg/ml incubated overnight by agar well diffusion method; assay type: functional; details: read-out: DIZ
Escherichia coli [8] = assay: Bactericidal activity against gram-negative Escherichia coli ATCC 11229 after 24 hrs by broth dilution method; assay type: functional; details: ATCC 11229, 24 h
Pseudomonas aeruginosa [9] = assay: Bactericidal activity against gram-negative Pseudomonas aeruginosa ATCC 2785 after 24 hrs by broth dilution method; assay type: functional; details: ATCC 2785, 24 h
Staphylococcus aureus [10] = assay: Bactericidal activity against gram-positive Staphylococcus aureus ATCC 3591 after 24 hrs by broth dilution method; assay type: functional; details: ATCC 3591, 24 h
[11] = test system: Staphylococcus epidermidis; assay: Bactericidal activity against gram-positive Staphylococcus epidermidis ATCC 12228 after 24 hrs by broth dilution method; assay type: functional; details: ATCC 12228, 24 h
Staphylococcus aureus [12] = assay: Antibacterial activity against gram-positive Staphylococcus aureus ATCC 3591 at 5 mg/ml incubated overnight by agar well diffusion method; assay type: functional; details: read-out: DIZ
Escherichia coli [13] = assay: Antibacterial activity against gram-negative Escherichia coli ATCC 11229 at 5 mg/ml incubated overnight by agar well diffusion method; assay type: functional; details: read-out: DIZ

CCCCCCCCCCCCNCCN
logP [1]: 4.69
MIC [2]: 27 µM (≈ 6.17 µg/mL)

CCCCCCCCCCCCNCCO
logP [1]: 3.93
MIC [2]: 27 µM (≈ 6.19 µg/mL)

CCCCCCCCNCCO
logP [1]: 2.55
MIC [2]: 577 µM (≈ 100 µg/mL)

CCCCCCCCCCNCCO
logP [1]: 3.09
MIC [2]: 248 µM (≈ 49.9 µg/mL)

CCCCCCCCCCCCN(CCO)C[C@@H](O)COC[C@H]1O[C@@H]2OC(C)(C)O[C@@H]2[C@H]2OC(C)(C)O[C@H]21
logP [1]: 4.22
IC50 [3]: 260 µM
Ratio IC50 (MCF7 [4]): 3.4
IC50 (HeLa): 105 µM
IC50 (M059J): 97.8 µM
IC50 (MCF7 [5]): 75.7 µM
MIC [2]: 29 µM (≈ 15.8 µg/mL)

CCCCCCCCC(O)CNCCO (stereo unspecified)
logP [1]: 2.14
MIC [2]: 460 µM (≈ 100 µg/mL)

CCCCCCCCCCCCC(O)CNCCO (stereo unspecified)
logP [1]: 4.69
MIC [2]: 46 µM (≈ 12.6 µg/mL)

CCCCCCCCCCNCCCN
logP [1]: 2.82
MIC [2]: 116 µM (≈ 24.9 µg/mL)

CCCCCCCCCCNCCN
logP [1]: 2.71
MIC [2]: 249 µM (≈ 49.9 µg/mL)

CCCCCCCCCCCCCCNCCN
logP [1]: 4.5
MIC [2]: 97 µM (≈ 24.9 µg/mL)

CCCCCCCCCCC(O)CNCCO (stereo unspecified)
logP [1]: 3.62
MIC [2]: 102 µM (≈ 25 µg/mL)

CCCCCCCCCCCCN(CCO)C[C@H](O)COC[C@H]1O[C@@H]2OC(C)(C)O[C@@H]2[C@H]2OC(C)(C)O[C@H]21
logP [1]: 4.22
IC50 [3]: 162 µM
Ratio IC50 (MCF7 [4]): 0.8
IC50 (HeLa): 162 µM
IC50 (MCF7 [5]): 182 µM
MIC [2]: 15 µM (≈ 8.19 µg/mL)

CCCCCCCCCCCCCCNCCCN
logP [1]: 4.88
MIC [2]: 46 µM (≈ 12.4 µg/mL)

CCCCCCCCCCCCNCCCN
logP [1]: 5.06
MIC [2]: 103 µM (≈ 25 µg/mL)

CCCCCCCCCCC(O)CN(CCO)CC(O)COC[C@H]1O[C@@H]2OC(C)(C)O[C@@H]2[C@H]2OC(C)(C)O[C@H]21 (mixture of isomers)
logP [1]: 3.37
zone of inhibition at 5000 µg/mL (Pseudomonas aeruginosa [6]): 20 mm
zone of inhibition at 5000 µg/mL [7]: 11 mm
MBC (Escherichia coli [8]): > 911 µM
MBC (Pseudomonas aeruginosa [9]): > 911 µM
MBC (Staphylococcus aureus [10]): > 911 µM
MBC [11]: 28 µM
MIC [2]: 175 µM

CCCCCCCCCCCCCCN(CCO)CC(O)COC[C@H]1O[C@@H]2OC(C)(C)O[C@@H]2[C@H]2OC(C)(C)O[C@H]21 (mixture of isomers)
logP [1]: 5.06
zone of inhibition at 5000 µg/mL (Staphylococcus aureus [12]): 18 mm
zone of inhibition at 5000 µg/mL [7]: 30 mm
MBC (Escherichia coli [8]): > 892 µM
MBC (Pseudomonas aeruginosa [9]): 892 µM
MBC (Staphylococcus aureus [10]): 111 µM
MBC [11]: 3 µM
IC50 [3]: 83 µM
Ratio IC50 (MCF7 [4]): 2.7
IC50 (HeLa): 87.7 µM
IC50 (M059J): 12.8 µM
IC50 (MCF7 [5]): 30.8 µM
MIC [2]: 22 µM

CCCCCCCCN(CCO)CC(O)COC[C@H]1O[C@@H]2OC(C)(C)O[C@@H]2[C@H]2OC(C)(C)O[C@H]21 (mixture of isomers)
logP [1]: 2.55
MIC [2]: > 204 µM

CCCCCCCCC(O)CN(CCO)CC(O)COC[C@H]1O[C@@H]2OC(C)(C)O[C@@H]2[C@H]2OC(C)(C)O[C@H]21 (mixture of isomers)
logP [1]: 2.43
zone of inhibition at 5000 µg/mL (Pseudomonas aeruginosa [6]): 18 mm
zone of inhibition at 5000 µg/mL (Staphylococcus aureus [12]): 16 mm
zone of inhibition at 5000 µg/mL [7]: 22 mm
MBC (Escherichia coli [8]): > 959 µM
MBC (Pseudomonas aeruginosa [9]): > 959 µM
MBC (Staphylococcus aureus [10]): 240 µM
MBC [11]: 120 µM
MIC [2]: > 187 µM

CCCCCCCCCCCCN(CCO)CC(O)COC[C@H]1O[C@@H]2OC(C)(C)O[C@@H]2[C@H]2OC(C)(C)O[C@H]21 (mixture of isomers)
logP [1]: 4.22
zone of inhibition at 5000 µg/mL (Pseudomonas aeruginosa [6]): 20 mm
zone of inhibition at 5000 µg/mL [7]: 20 mm
MBC (Escherichia coli [8]): > 938 µM
MBC (Pseudomonas aeruginosa [9]): > 938 µM
MBC (Staphylococcus aureus [10]): > 938 µM
MBC [11]: 4 µM
IC50 [3]: 282 µM
Ratio IC50 (MCF7 [4]): 2.7
IC50 (HeLa): 125 µM
IC50 (M059J): 110 µM
IC50 (MCF7 [5]): 104 µM
MIC [2]: 23 µM

CCCCCCCCCCCCC(O)CN(CCO)CC(O)COC[C@H]1O[C@@H]2OC(C)(C)O[C@@H]2[C@H]2OC(C)(C)O[C@H]21 (mixture of isomers)
zone of inhibition at 5000 µg/mL (Staphylococcus aureus [12]): 20 mm
zone of inhibition at 5000 µg/mL [7]: 18 mm
MBC (Escherichia coli [8]): > 868 µM
MBC (Pseudomonas aeruginosa [9]): > 868 µM
MBC (Staphylococcus aureus [10]): > 868 µM
MBC [11]: 13 µM

CCCCCCCCCCN(CCO)CC(O)COC[C@H]1O[C@@H]2OC(C)(C)O[C@@H]2[C@H]2OC(C)(C)O[C@H]21 (mixture of isomers)
logP [1]: 3.39
zone of inhibition at 5000 µg/mL (Staphylococcus aureus [12]): 20 mm
zone of inhibition at 5000 µg/mL [7]: 20 mm
MBC (Escherichia coli [8]): > 988 µM
MBC (Pseudomonas aeruginosa [9]): 988 µM
MBC (Staphylococcus aureus [10]): 123 µM
MBC [11]: 61 µM
MIC [2]: 96 µM

CCCCCCCCCCCCNCCCNCC(O)COC[C@H]1O[C@@H]2OC(C)(C)O[C@@H]2[C@H]2OC(C)(C)O[C@H]21 (mixture of isomers)
logP [1]: 4.09
zone of inhibition at 5000 µg/mL (Staphylococcus aureus [12]): 20 mm
zone of inhibition at 5000 µg/mL [7]: 19 mm
MBC (Escherichia coli [8]): > 916 µM
MBC (Pseudomonas aeruginosa [9]): > 916 µM
MBC (Staphylococcus aureus [10]): > 916 µM
MBC [11]: > 916 µM
IC50 [3]: 23.5 µM
Ratio IC50 (MCF7 [4]): 0.8
IC50 (HeLa): 34.5 µM
IC50 (M059J): 34.8 µM
IC50 (MCF7 [5]): 27.8 µM
MIC [2]: 22 µM

CCCCCCCCCCNCCCNCC(O)COC[C@H]1O[C@@H]2OC(C)(C)O[C@@H]2[C@H]2OC(C)(C)O[C@H]21 (mixture of isomers)
logP [1]: 3.26
zone of inhibition at 5000 µg/mL (Escherichia coli [13]): 28 mm
zone of inhibition at 5000 µg/mL (Staphylococcus aureus [12]): 12 mm
MBC (Escherichia coli [8]): 241 µM
MBC (Pseudomonas aeruginosa [9]): > 965 µM
MBC (Staphylococcus aureus [10]): 60 µM
MBC [11]: 15 µM
IC50 [3]: 29.4 µM
Ratio IC50 (MCF7 [4]): 0.9
IC50 (HeLa): 57 µM
IC50 (M059J): 53.8 µM
IC50 (MCF7 [5]): 32.2 µM
MIC [2]: 23 µM

CCCCCCCCCCCCCCNCCCNCC(O)COC[C@H]1O[C@@H]2OC(C)(C)O[C@@H]2[C@H]2OC(C)(C)O[C@H]21 (mixture of isomers)
logP [1]: 4.12
IC50 [3]: 80.3 µM
Ratio IC50 (MCF7 [4]): 0.4
IC50 (HeLa): 147 µM
IC50 (M059J): 195 µM
IC50 (MCF7 [5]): 194 µM
MIC [2]: 42 µM

CC[C@@]1(O)C(=O)OCc2c1cc1n(c2=O)Cc2cc3ccccc3nc2-1 [CAMPTOTHECIN]
IC50 [3]: 3.2 µM
Ratio IC50 (MCF7 [4]): 0.5
IC50 (HeLa): 19.8 µM
IC50 (M059J): 5.5 µM
IC50 (MCF7 [5]): 6 µM

COc1cccc2c1C(=O)c1c(O)c3c(c(O)c1C2=O)C[C@@](O)(C(=O)CO)C[C@@H]3O[C@H]1C[C@H](N)[C@H](O)[C@H](C)O1 [DOXORUBICIN]
IC50 [3]: 0.5 µM
IC50 (HeLa): 21.9 µM
IC50 (M059J): 6.9 µM

CC[C@@H](CO)NCCN[C@@H](CC)CO [ETHAMBUTOL]
MIC [2]: 15 µM (≈ 3.06 µg/mL)

COc1cc([C@@H]2c3cc4c(cc3[C@@H](O[C@@H]3O[C@@H]5CO[C@@H](C)O[C@H]5[C@H](O)[C@H]3O)[C@H]3COC(=O)[C@H]23)OCO4)cc(OC)c1O [ETOPOSIDE]
IC50 [3]: 1.2 µM
Ratio IC50 (MCF7 [4]): 0
IC50 (HeLa): 226 µM
IC50 (M059J): 58.9 µM
IC50 (MCF7 [5]): 82.6 µM

CCCCCCCCCCCCCCNCCO [MYRALACT]
logP [1]: 4.76
MIC [2]: 49 µM (≈ 12.6 µg/mL)

CO[C@H]1/C=C/O[C@@]2(C)Oc3c(C)c(O)c4c(O)c(c(/C=N/N5CCN(C)CC5)c(O)c4c3C2=O)NC(=O)/C(C)=C\C=C\[C@H](C)[C@H](O)[C@@H](C)[C@@H](O)[C@@H](C)[C@H](OC(C)=O)[C@@H]1C [RIFAMPIN]
MIC [2]: 1 µM (≈ 0.823 µg/mL)
